Experimental data: EP0022330B1, “Synergistic antihypertensive compositions” (SMITHKLINE BECKMAN CORPORATION, priority 1979, dated 1981)
Values joined by “and” are separate entries in the source; they are usually repeats but may differ in a detail not shown here. Identical values can stand only once. Like-named read-outs stand apart in the source and are kept apart here. Marks after values point to notes of the source that are not given here.

What was measured:
Assay type in all cases: in vivo
[1] = test system: anesthetized normotensive dogs; test: renal dopamine-like activity by infusion in anesthetized normotensive dogs; conditions: for ED15: Canis lupus familiaris, iv, infusion, anesthetized normotensive dogs
Procedure: In the test procedure for determining renal dopamine-like activity by infusion in anesthetized normotensive dogs, 6 - chloro - 7,8 - dihydroxy - 1 - (p - hydroxyphenyl) - 2,3,4,5 - tetrahydro - 1 H - 3 - benzazepine has an ED15 of 0.3 µg/kg. The details of the test procedure are presented in the literature references mentioned above. The tri-O-acetyl derivative of this compound has an ED1. of 25 µg/kg, and the tri-O-isobutyryl derivative has an ED15 of 16 µg/kg. Other compounds of Formula I having renal dopaminergic activity can be used by comparing their activity in the anesthetized dog protocol with that of the above specifically named compound in preparing hypotensively effective and non-toxic dosage regimens. For example, referring to compounds of the Formula I in which R is H: […]
The renal dopaminergic ED1. values given above for the infused anesthetized dog are useful to assess quantitative and qualitative biological properties of the 1 - hydroxyphenyl - 7,8 - dihydroxy - 2,3,4,5 - tetrahydro - 1 H - 3 - benzazepine compounds of Formula I. These compounds are preferably given by oral administration. They are rapidly absorbed from the gastrointestinal tract, and have a relatively short half life in vivo. Therefore, the renal dopaminergic agent must be matched with conventional dosage regimens of the diuretic agents considering the pharmacokinetic properties of each active component. This may be accomplished by combining the renal dopaminergic agent with a diuretic in standard dosage unit forms for administration from 2-6 times daily. This would be most suitable when the diuretic agent is of a short acting nature and conventionally multiple daily doses are used to give the desired maintenanance level.

[2] = test system: glucose-infused unanesthetized dog; test: renal clearance study in the glucose-infused unanesthetized dog; conditions: single dose, benzazepine salt alone, glucose-infused dog protocol
[3] = test system: phosphate mannitol infused dog; test: renal clearance study in the phosphate-mannitol infused dog; conditions: change from control, triamterene 10 mg. p.o., benzazepine 2.5 mg. p.o.
From the text: Mannitol itself has some proximal natriuretic effect which tends to screen any synergistic effect of the combination. […] In the parameters presented, the control figures are actual values. Phase II, III and IV are changes from control.

[4] = test system: glucose-infused unanesthetized dog; test: renal clearance study in the glucose-infused unanesthetized dog; conditions: hydrochlorothiazide 2.5 mg/kg i.v. then 3.0 mg/kg/hr infusion
Procedure: In the glucose-infused unanesthetized dog, 6 - chloro - 7,8 - dihydroxy - 1 - (p - hydroxyphenyl) 2,3,4,5 - tetrahydro - 1 H - 3 - benzazepine methyl sulfonate was given at the peak time of natriureses established by a maximally effective dose of hydrochlorothiazide.
All dogs were given an oral water load of 3% of body weight of tap water thirty minutes prior to initiation of the experiment. Using a constant infusion pump the dogs were infused intravenously at 3 ml/min. throughout the course of the experiment, with a 5% dextrose solution containing 3.0 mg/kg/hr of hydrochlorothiazide (HCTZ). Glomerular filtration rate was determined by the clearance of creatinine and effective renal plasma flow by the clearance of p-aminohippuric acid (PAH). […] The solution also contained 0.02% ascorbic acid. Suitable plasma levels of creatinine and p-aminohippuric acid were obtained by a twenty minute infusion of this solution to obtain equilibrium prior to starting of the initial urine collection. […] 1.5 ml/kg of a 1% creatinine solution in saline was also injected intravenously fifteen minutes prior to the start of the collection of urine. Replicate urine collections were obtained at ten minute intervals throughout the experiment. The bladder was emptied by an indwelling catheter and complete urine collections were measured by rinsing the bladder with 10 ml of water at the end of each collection interval, followed by an air wash-out. Venous blood samples were drawn from an indwelling catheter at the mid-point of each clearance period.
Plasma and urine osmolalities were determined by freezing point depression on freshly obtained samples. Urine volume and pH were recorded at the time of collection. Plasma and urine samples were stored frozen after collection, until analyzed. Analysis for sodium and potassium were made using the flame. photometer, and for chloride, creatinine, and p-aminohippuric acid, by colorimeter, using standard methodologies. These analyses were made simultaneously on each sample. Peak intensities were identified electronically, recorded by "on-line" teletype, stored and subsequently analyzed mathematically by time-shared computer against appropriate standards. Data were computed from linear least square regression lines and quality control standards were analyzed simultaneously to evaluate system reproducibility and reliability.
In the experiments where hydrochlorothiazide alone was given, twelve clearances were obtained. […] In the combination study the benzazepine was given by stomach tube at 5.0 mg/kg (base) after Ca, The compound was solubilized in water with a small amount of sugar syrup to prevent or minimize emesis. Clearances C7-C'2 (treatment) as in the hydrochlorothiazide alone tests, were taken with no wait between C6 and C7. Five dogs were used with both hydrochlorothiazide and with the combination.

[5] = individual dog, difference between averages of C1—C6 and C7—C12

Question: For `C=CCN1CCc2c(cc(O)c(O)c2Cl)C(c2ccc(O)cc2)C1` (centres unmarked), which renal dopaminergic activity ([1]; 0.3 ug/kg/min infusion rate) is on record?
Answer: Its renal dopaminergic activity is “demonstrated activity”.

Question: Which diuretic effect [2] does the source give for `CS(=O)(=O)O.Oc1ccc(C2CNCCc3c2cc(O)c(O)c3Cl)cc1` (centres unmarked) [6 - Chloro - 7,8 - dihydroxy - 1 - (4 - hydroxyphenyl) - 2,3,4,5 - tetrahydro - 1H - 3 - benzazepine methyl sulphonic acid salt] here?
Answer: Its diuretic effect is “no diuretic effect”.

Question: `Oc1ccc(C2CNCCc3c2cc(O)c(O)c3Cl)cc1` (centres unmarked) [6 - chloro - 7,8 - dihydroxy - 1 - (p - hydroxyphenyl) - 2,3,4,5 - tetrahydro - 1 H - 3 - benzazepine] was tested. Which ED15 ([1]; read-out: ED15) did it give?
Answer: Its ED15 is 0.3 µg/kg.

Question: What about the “Glomerular Filtration Rate” value ([3]; Phase II) of the same molecule?
Answer: The value was 1.

Question: What about the “Potassium Execretion” value ([3]; Phase II) of the same molecule?
Answer: The value was −0.93**.

Question: What about the “Glomerular Filtration Rate” value ([3]; Phase III) of the same molecule?
Answer: Its value is −2.

Question: What about the “Potassium Execretion” value ([3]; Phase III) of the same molecule?
Answer: Its value is −1.59.

Question: And the “Glomerular Filtration Rate” value ([3]; Phase IV)?
Answer: The value was −2.

Question: What about the “Potassium Execretion” value ([3]; Phase IV) of the same molecule?
Answer: The value was 2.02.

Question: Which ED15 ([1]; read-out: ED15) does the source give for `Oc1cccc(C2CNCCc3c2cc(O)c(O)c3Cl)c1` (centres unmarked) [A, 6 - chloro - 7,8 - dihydroxy - 1 - (3 - hydroxyphenyl) - 2,3,4,5 - tetrahydro - 1 H - 3 - benzazepine] here?
Answer: The ED15 was 0.35 µg/kg.

Question: With `Oc1ccc(C2CNCCc3c2cc(O)c(O)c3Br)cc1` (centres unmarked) [B] as the molecule, how does the ED15 ([1]; read-out: ED15) read?
Answer: Its ED15 is 5 µg/kg.

Question: How did the ED15 ([1]; read-out: ED15) turn out when `Cc1c(O)c(O)cc2c1CCNCC2c1ccc(O)cc1` (centres unmarked) [C, 6 - methyl - 7,8 - dihydroxy - 1 - (4 - hydroxyphenyl) - 2,3,4,5 - tetrahydro - 1 H - 3 - benzazepine] was run?
Answer: The ED15 was 2.8 µg/kg.

Question: `Oc1ccc(C2CNCCc3c(Cl)c(O)c(O)c(Cl)c32)cc1` (centres unmarked) [D, 6,9 - dichloro - 7,8 - dihydroxy - 1 - (4 - hydroxyphenyl) - 2,3,4,5 - tetrahydro - 1H - 3 - benzazepine] was tested. Which ED15 ([1]; read-out: ED15) did it give?
Answer: The ED15 was 620 µg/kg.

Question: Which ED15 ([1]; read-out: ED15) does the source give for `Cc1c(O)c(O)c(Cl)c2c1CCNCC2c1ccc(O)cc1` (centres unmarked) [E] here?
Answer: The ED15 was 30 µg/kg.

Question: With `Oc1ccc(C2CNCCc3c2cc(O)c(O)c3I)cc1` (centres unmarked) [F] as the molecule, how does the ED15 ([1]; read-out: ED15) read?
Answer: Its ED15 is 4.2 µg/kg.

Question: Which ED15 ([1]; read-out: ED15) does the source give for `COC(=O)c1c(O)c(O)cc2c1CCNCC2c1ccc(O)cc1` (centres unmarked) [G, 6 - carbomethoxy - 7,8 - dihydroxy - 1 - (4 - hydroxyphenyl) - 2,3,4,5 - tetrahydro - 1H - 3 - benzazepine] here?
Answer: The ED15 was 2.3 µg/kg.

Question: Which results are given for `NS(=O)(=O)c1cc2c(cc1Cl)NCNS2(=O)=O` [Hydrochlorothiazide, hydrochlorothiazide]?
Answer: Filtration Fraction Δ ([4]; Average of five dogs): −.012; Glomerular Filtration Rate (GFR) Δ % Change ([4]; Average of five dogs): −2.4%; Ranal Plasma Flow (RPF) Δ % Change ([4]; Average of five dogs): +2.6%; Δ % Na^+ Excreted ([4]; Average of five dogs): −0.82%; Filtration Fraction Δ [4, 5]: −.01 and 0 and +.01 and −.03 (2×); Glomerular Filtration Rate (GFR) Δ % Change [4, 5]: −6% and +6% and −7% and 0% and −5%; Ranal Plasma Flow (RPF) Δ % Change [4, 5]: −1% and +6% and −10% and +7% and +11%; Δ % Na^+ Excreted [4, 5]: −1.1% (2×) and −0.8% and −0.5% and −0.6%

Question: With `Nc1nc(N)c2nc(-c3ccccc3)c(N)nc2n1` [Triamterene, triamterene] as the molecule, how does the “Glomerular Filtration Rate” value ([3]; Phase II) read?
Answer: Its value is −3.

Question: And the “Potassium Execretion” value ([3]; Phase II)?
Answer: The value was −3.65.

Question: What about the “Glomerular Filtration Rate” value ([3]; Phase III) of the same molecule?
Answer: The value was −15.

Question: What about the “Potassium Execretion” value ([3]; Phase III) of the same molecule?
Answer: Its value is −5.44.

Question: What about the “Glomerular Filtration Rate” value ([3]; Phase IV) of the same molecule?
Answer: Its value is −15**.

Question: And the “Potassium Execretion” value ([3]; Phase IV)?
Answer: The value was −5.61.

Question: Which ED15 ([1]; read-out: ED1.) does the source give for `CC(=O)Oc1ccc(C2CNCCc3c2cc(OC(C)=O)c(OC(C)=O)c3Cl)cc1` (centres unmarked) [tri-O-acetyl derivative, 6 - chloro - 7,8 - diacetoxy - 1 - (4 - acetoxyphenyl) 2,3,4,5 - tetrahydro - 1H - 3 - benzazepine] here?
Answer: The ED15 was 25 µg/kg.

Question: `CC(C)C(=O)Oc1ccc(C2CNCCc3c2cc(OC(=O)C(C)C)c(OC(=O)C(C)C)c3Cl)cc1` (centres unmarked) [tri-O-isobutyryl derivative] was tested. Which ED15 ([1]; read-out: ED15) did it give?
Answer: Its ED15 is 16 µg/kg.
